Measured values taken from US9364414B2, “Method to protect skin from ultraviolet radiation using novel peptides involved in the improvement of microparasol organization in keratinocytes” (ISP Investments Inc., priority 2011, dated 2016).
Ends that are not written are not given here.

What was measured:
[1] = system: normal human epidermal melanocytes (NHEM); assay: Comet assay on NHEM cells irradiated with UVB; assay type: cell-based; conditions: peptide 1% (0.5 ppm) 24 hours pretreatment + UVB 30 mJ/cm^2
Procedure: (§1) NHK and NHEM were placed in culture for 24 hours in the presence of a solution of peptide compound SEQ ID NO: 7 at 50 ppm diluted at 1% before use, then irradiated with UVB radiation in an amount of 30 mJ/cm^2 for NHEM and 60 mJ/cm^2 for NHK. A control condition was also used without a peptide active agent. The cells were then detached from their support by trypsin, then centrifuged at 900 rpm for 5 minutes in order to concentrate them and count them.
(§2) A defined number of cells (25,000 cells) was then embedded in a Low Melting agarose gel at 0.75%, then deposited on a glass slide previously coated with 1% agarose. The slides were then immersed in a lysis solution for 1 hour 30 minutes at 4° C., then in an alkaline solution for 20 minutes at 4° C. The cells were thus lysed and the DNA was denatured. The slides were immersed in an electrophoresis solution before an electric field (20 V-250 mA) is applied. The DNA thus denatured was subjected to migration in the agarose gel at 4° C. The application of a fluorescent DNA dye on the slides (propidium iodide at 2 μg/ml) makes it possible to observe, under the microscope, DNA appearing in the form of comets if it has been damaged.
(§3) Finally, quantification software makes it possible to determine the Tail Moment, means applied to each condition tested. […]

[2] = system: cyclobutane pyrimidine dimers (CPDs) in NHEM; assay: Amount of cyclobutane pyrimidine dimers (CPDs) in melanocytes after UVB (immunostaining); assay type: cell-based, human; conditions: UVB 75 mJ/cm^2
Procedure: DNA damages induced by UVB radiation can be monitored by quantifying the amount of cyclobutane pyrimidine dimers (CPDs), which are formed after conformational changes in the DNA structure. […] The quantification of CPDs was carried out by immunohistochemical assay.
NHEM (normal human epidermis melanocytes) were grown in Melanocyte Growth Medium (PromoCell) supplemented with 1 ng/ml human basic fibroblast growth factor, 52 μg/ml medium bovine pituitary extract, 0.5 μg/ml hydrocortisone, 5 μg/ml human recombinant insulin, 10 ng/ml phorbol 12-myristate 13-acetate (PMA) and 100 μg/ml of PRIMOCIN (In vivoGen). When the cells were sub-cultured for the experiment, the same medium depleted in PMA was used. Cells were maintained at 37° C. in a humidified atmosphere containing 5% of CO2.
Cells were treated, or not, in duplicate, twice a day for 48 hours with a solution of peptide compound SEQ ID NO: 7 at 100 ppm, diluted at 0.5% or 1% before use. Then, they were irradiated, or not, with a 75 mJ/cm^2 UVB dose using a specific oven to ensure the homogeneity of the treatment. […]
Three images per condition were analyzed. Each picture was converted in grey levels and analyzed with Image-Pro Analyzer 6.3 software (MediaCybernetics, Inc.) which generated a histogram representing the number of pixels per intensity. The sum of all intensities was calculated. […]

[3] = system: dynactin subunit p150Glued; assay: Expression of p150Glued in ex-vivo human skin biopsies (immunostaining); assay type: cell-based; conditions: 100 ppm stock diluted at 1%, twice a day, 48 hours
Procedure: Samples of ex-vivo human skin biopsies from a person, were cultured at the air/liquid interface. The samples were treated twice a day with a stock solution of peptide SEQ ID NO: 7 at 100 ppm, diluted at the 1%, for 48 hours.
Immunostaining was then performed by means of an antibody directed to p150Glued subunit (REF.Santacruz sc-9804), followed by a secondary antibody, coupled with a green fluorescent marker (REF Invitrogen, A11055). The skin sections were then examined using Nikon® Eclipse 80i microscope.
Quantification was carried out with VOLOCITY® image analysis software.

[4] = system: normal human keratinocytes (NHK); assay: Comet assay on NHK cells irradiated with UVB; assay type: cell-based
Procedure: as §1, §2, §3

[5] = system: keratinocytes containing melanosomes (NHK/NHEM co-culture); assay: Frequency of keratinocytes containing melanosomes in NHK/NHEM co-culture after p150Glued siRNA; assay type: cell-based, human; conditions: after 10 nM p150Glued siRNA, 48 hours
Procedure: Normal human primary keratinocytes (NHK) and normal human epidermal melanocytes (NHEM) were co-cultured (ratio: 1 melanocyte/4 keratinocytes) in Keratinocyte Serum Free Medium (KSFM, GIBCO) supplemented with 50 μg/ml bovine pituitary extract, 5 ng/ml human recombinant EGF (GIBCO) and 100 μg/ml Primocin™ (INVIVOGEN). Cells were maintained at 37° C. in a humidified atmosphere containing 5% CO2.
NHK and NHEM cells co-seeded for 48 hours were treated, or not, in duplicate, once with 10 nM of p150Glued-specific siRNA.
Cells were then treated, or not, in duplicate, twice a day for 48 hours with a solution of peptide compound SEQ ID NO: 7 at 100 ppm, diluted at 0.5% or 1% before use, without medium change.
Cells were rinsed with PBS and fixed with cold methanol for 4 minutes. Cellular membranes were permeabilized using 0.1% X-100 Triton (Fisher Scientific) for 10 minutes. Unspecific binding sites were blocked, then cells were incubated with the primary antibodies directed to melanosomes (mouse monoclonal anti-“pmel17” Abcam, ab34165 and rabbit monoclonal anti “keratin-14” Abcam, ab51054) diluted in PBS, for 1 hour and a half, under agitation, at room temperature, in a damp room. […]
Three images per condition were analyzed. […] The frequency of keratinocyte containing melanosomes was evaluated and expressed in percentage. […]

[6] = system: supranuclear organization of melanosomes in ex-vivo skin; assay: Microparasol supranuclear organization in ex-vivo skin (light and electron microscopy); assay type: cell-based, human; conditions: 0.5% (light microscopy) or 1% (electron microscopy), 48 hours
Procedure: 6 mm diameter punch biopsies were obtained from a person (light microscopy) and a person (electron microscopy) […]. They were cultivated on culture medium containing 50% of DMEM 1 g/L glucose (Lonza) and 50% of Ham's-F12 (Lonza) supplemented with 10% of FBS (Lonza), 2 mM of L-glutamine (Lonza) and 100 μg/ml of PRIMOCIN™ (InvivoGen). Skin biopsies were maintained at 37° C. in a humidified atmosphere containing 5% of CO2.
The stock solution of peptide compound SEQ ID NO: 7 was diluted at 0.5% or 1% before use. The biopsies were treated, or not, in duplicate, twice a day with 0.5% (light microscopy) or 1% (electron microscopy) of peptide compound SEQ ID NO: 7 for 48 hours.
After skin culture, tissues were fixed for 4 hours in buffered 10% formalin. Samples were transferred to baths with ethanol progressively concentrated to remove water, then followed by two baths of xylene to remove the alcohol, and finally embedded in molten paraffin wax. Embedded skin biopsies were then cut with a microtome (Shandon) into 4 μm thick sections and placed on SUPERFROST PLUS™ slides (Thermo Scientific).
Sections were deparaffinized and rehydrated with several successive xylene, alcohol and water baths. Then, 100 μl of Stock solution were added on each section and slides were incubated 10 minutes at 60° C. […]

Substance: Asp-Leu-Lys-Lys-NH2 (DLKK-NH2) [SEQ ID NO: 7]
- reduction in Tail Moment versus UVB condition [1]: 55%
- change of CPDs after UVB compared to the non treated condition ([2]; pretreated 48 hours with 0.5% (0.5 ppm)): −39%
- change of CPDs after UVB compared to the non treated condition ([2]; pretreated 48 hours with 1% (1 ppm)): −59%
- increase of the dynactin subunit p150Glued staining [3]: 80%
- reduction in Tail Moment versus UVB condition ([4]; peptide 1% (0.5 ppm) 24 hours pretreatment + UVB 60 mJ/cm^2): 70%
- Tail Moment ([4]; peptide 1% (0.5 ppm) 24 hours pretreatment + UVB 60 mJ/cm^2, UVB alone 170.27, control 1.66): 51.36
- frequency of keratinocyte containing melanosomes compared to the control ([5]; peptide 0.5% (0.5 ppm)): partially restored
- frequency of keratinocyte containing melanosomes compared to the control ([5]; peptide 1% (1 ppm)): fully restored
- supranuclear organization of melanosomes above the nucleus [6]: better supranuclear organization of melanosomes
